Measured values reported in patent US9168243B2, “Pharmaceutical compositions comprising 8-substituted dibenzylbutyrolactone lignans” (priority 2010, dated 2015).
Entries after “also recorded” stand apart in the source; their conditions may differ.

Key:
phospho-Akt(ser473) = test: Western blot of Akt / phospho-Akt(ser473); assay type: cell-based
Protocol: Whole cell lysates were prepared by lysing floating and attached cells in Laemmli sample buffer and boiling the samples for 10 minutes. Proteins were separated by SDS-PAGE and transferred on PVDF membrane (Millipore). Western blotting was performed using antibodies against Akt, phospho-Akt (Ser473), GSK-3β, phospho-GSK-3β (Ser9) and phospho-EGF receptor Tyr(1068) (Cell Signalling Technology), Actin (clone AC-40; Sigma-Aldrich), PI3K p85α (clone 4/PI3-Kinase; BD Pharmingen), EGF receptor, Insulin receptor β and IGF-I receptor β (Santa Cruz Biotechnology), and Phospho-tyrosine (clone 4G10; Millipore). HRP-conjugated secondary antibodies were from Southern Biotechnology Associates, Promega, and Amersham Biosciences. The results were visualized using the ECL method (Amersham Biosciences) on x-ray film. The presented Western blot results are representative of at least three independent experiments. Densitometric analysis of Western blots was done using scanned films with the MCID M5+ software. The values were normalized to the untreated control sample, which was given the value 1. The histograms in FIG. 4 present a relative decrease in ratio of phosphorylated vs. non-phosphorylated protein compared to control cells.
LNCaP cells (+/−1 nM androgen) were treated with 0-100 μM enterolactone (ENL), matairesinol (MAT) or NTG for 1 hour prior to preparation of total cell lysates (FIG. 4A). The relative decrease in pAkt/Akt ratio was quantified from western blot analysis with Akt (60 kDa) and phospho-Akt(ser473) (Mean±SEM; n=4; Student's t-test *p<0.05, **p<0.01). Alternatively, androgen-deprived LNCaP cells were incubated with 100 μM NTG for 2 hours, fixed and labeled with Akt antibody followed by Alexa 546-conjugated secondary antibody. The samples were viewed at LSM 510 confocal microscope (63× oil objective, 543 nm excitation) (FIG. 4B). To examine the time-dependence of the observed inhibitory effect, LNCaP cells (+/−1 nM androgen) were incubated with 100 μM NTG for 0-8 hours after which total cell lysates were prepared. The western blot analysis with Akt, phospho-Akt(ser473), GSK-3β and phospho-GSK-3β(ser9) was quantified. The histogram presents a relative decrease in pAkt/Akt ratio (FIG. 4C.) or pGSK-3β/GSK-3β ratio (FIG. 4D.) compared to control cells (Mean±SEM; n=3). […]
Importantly, substitution with methyl group at position 8 further increases activity of dibenzylbutyrolactone lignans in sensitization of LNCaP prostate cancer cells to TRAIL-mediated apoptosis (FIG. 8). […] The samples were analyzed by flow cytometry and the fraction of sub-G0/G1 events (nuclear fragmentation) was detected as a measure of apoptotic cell death (mean±SEM; n=4). […]

[1] = test system: insulin receptor (IR) β-subunit and IGF-I receptor (IGF-IR) β-subunit; test: Immunoprecipitation of IRβ and IGF-IRβ after insulin or IGF-I stimulation, Western blot for phospho-tyrosine and PI3K p85α; assay type: cell-based; conditions: serum-starved LNCaP; 40-100 μM NTG 2 hours before 10 nM insulin or IGF-I, 10 minutes
Protocol: The cells were treated with 0-100 μM lignans or solvent control for indicated times. Human recombinant isoleucin-zipper TRAIL (izTRAIL; kindly provided by Professor Henning Walczak) was used at 0-1 μg/ml with an incubation time of 20 hours. Prior to 10 minutes treatment with 10 nM IGF-1 (Millipore) or 10 nM insulin (Sigma) the cells were serum-starved (1% FCS) overnight. EGFR stimulation was performed on serum-starved cells with 20 ng/ml EGF for 5 minutes (a kind gift from Professor Klaus Elenius laboratory).
The cells cultured on […] were placed on ice and rinsed with cold PBS. The cells were lysed in 1 ml of cold lysis buffer (50 mM Tris pH 7.4, 150 mM NaCl, 1 mM EDTA, 1.25% CHAPS, 1 mM Na3OV4, 2 mM NaF, 10 mM sodium pyrophosphate and complete protease inhibitor cocktail [Roche Applied Science]) for 10 minutes. […]
To further investigate the specificity of this inhibitory effect, LNCaP cells were serum-starved overnight, treated with 0-100 μM NTG for 2 hours, and activated for 10 minutes with 10 nM insulin or IGF-I, after which insulin receptor (IR) β-subunit and IGF-I receptor (IGF-IR) β-subunit were immunoprecipitated (FIG. 5B). The precipitated complexes were analyzed by Western blotting for presence of PI3K p85α (85 kDa), IRβ (95 kDa), IGF-IRβ (95 kDa) and phospho-tyrosine and the expression of PI3K p85α, Akt and phospho-Akt(ser473) was probed from the lysates. […]

[2] = LNCaP +/- androgen, 100 μM NTG 2 hours, then medium change

COc1cc(CC2COC(=O)C2(O)Cc2ccc(O)c(OC)c2)ccc1O (centres unmarked) [NTG, Nortrachelogenin]
Akt phosphorylation (pAkt/Akt ratio) (phospho-Akt(ser473); LNCaP +/- 1 nM androgen, 0-100 μM lignan, 1 hour (NTG also 100 μM, 0-8 hours)): downregulates Akt and GSK-3β phosphorylation; also recorded: inhibit Akt phosphorylation yet more efficiently than ENL or MAT | time after washout at which Akt activity starts returning (phospho-Akt(ser473); [2]): 10 min | time after washout to total recovery of Akt activity (phospho-Akt(ser473); [2]): ≤ 1 h | amount of receptor-associated PI3K p85 [1]: clearly reduced | receptor tyrosine phosphorylation of IR and IGF-IR [1]: decreased
